Legend:
Conditions in all cases: incubation time: 72 h
HCC1143 [1] = assay: normalised response (% of control), CellTox Green; higher = less cell death (100 = DMSO, 0 = benzethonium chloride kill control)
How it was run: (§1)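 After 72 h with compound in 384-well plates, breast cancer cell lines seeded as 20 µl suspension were read for CellTox Green fluorescence at 485/520 nm. CellTiter-Glo luminescence was then read after 10 min at room temperature. Compound was present at 5 concentrations in 10-fold steps over a 10,000-fold range set per compound, and plates were normalised to 0.1 % DMSO (100) and a positive kill control (0). Values are normalised signals, each at a single concentration.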

MDA-MB-453 [2] = assay: as above
How it was run: as §1

MDA-MB-468 [3] = assay: as above
How it was run: as §1

CAL-120 [4] = assay: as above
How it was run: as §1

MFM-223 [5] = assay: as above
How it was run: as §1

CAL-85-1 [6] = assay: as above
How it was run: as §1

BT-474 [7] = assay: as above
How it was run: as §1

HDQ-P1 [8] = assay: as above
How it was run: as §1

CAL-148 [9] = assay: as above
How it was run: as §1

MDA-MB-231 [10] = assay: as above
How it was run: as §1

HCC1599 [11] = assay: as above
How it was run: as §1

MDA-MB-436 [12] = assay: as above
How it was run: as §1

MCF-10A [13] = assay: as above
How it was run: as §1

Hs578T [14] = assay: as above
How it was run: as §1

BT-549 [15] = assay: as above
How it was run: as §1

HCC1937 [16] = assay: as above
How it was run: as §1

DU-4475 [17] = assay: as above
How it was run: as §1

CAL-51 [18] = assay: as above
How it was run: as §1

HCC1143 [19] = assay: normalised response (% of control), CellTiter-Glo; higher = more viable cells (100 = DMSO, 0 = benzethonium chloride kill control)
How it was run: as §1

SK-BR-3 = assay: as above
How it was run: as §1

MDA-MB-453 [20] = assay: as above
How it was run: as §1

MDA-MB-468 [21] = assay: as above
How it was run: as §1

CAL-120 [22] = assay: as above
How it was run: as §1

MFM-223 [23] = assay: as above
How it was run: as §1

CAL-85-1 [24] = assay: as above
How it was run: as §1

BT-474 [25] = assay: as above
How it was run: as §1

HDQ-P1 [26] = assay: as above
How it was run: as §1

CAL-148 [27] = assay: as above
How it was run: as §1

MDA-MB-231 [28] = assay: as above
How it was run: as §1

HCC1599 [29] = assay: as above
How it was run: as §1

MDA-MB-436 [30] = assay: as above
How it was run: as §1

MCF-10A [31] = assay: as above
How it was run: as §1

Hs578T [32] = assay: as above
How it was run: as §1

BT-549 [33] = assay: as above
How it was run: as §1

HCC1937 [34] = assay: as above
How it was run: as §1

DU-4475 [35] = assay: as above
How it was run: as §1

CAL-51 [36] = assay: as above
How it was run: as §1

Structure (SMILES) | normalised response (HCC1143 [1]) | normalised response (MDA-MB-453 [2]) | normalised response (MDA-MB-468 [3]) | normalised response (CAL-120 [4]) | normalised response (MFM-223 [5]) | normalised response (CAL-85-1 [6]) | normalised response (BT-474 [7]) | normalised response (HDQ-P1 [8]) | normalised response (CAL-148 [9]) | normalised response (MDA-MB-231 [10]) | normalised response (HCC1599 [11]) | normalised response (MDA-MB-436 [12]) | normalised response (MCF-10A [13]) | normalised response (Hs578T [14]) | normalised response (BT-549 [15]) | normalised response (HCC1937 [16]) | normalised response (DU-4475 [17]) | normalised response (CAL-51 [18]) | normalised response (HCC1143 [19]) | normalised response (SK-BR-3) | normalised response (MDA-MB-453 [20]) | normalised response (MDA-MB-468 [21]) | normalised response (CAL-120 [22]) | normalised response (MFM-223 [23]) | normalised response (CAL-85-1 [24]) | normalised response (BT-474 [25]) | normalised response (HDQ-P1 [26]) | normalised response (CAL-148 [27]) | normalised response (MDA-MB-231 [28]) | normalised response (HCC1599 [29]) | normalised response (MDA-MB-436 [30]) | normalised response (MCF-10A [31]) | normalised response (Hs578T [32]) | normalised response (BT-549 [33]) | normalised response (HCC1937 [34]) | normalised response (DU-4475 [35]) | normalised response (CAL-51 [36])
O=C(Cc1ccc(-c2ccc(OCCN3CCOCC3)cc2)cn1)NCc1ccccc1 [KX2-391] (100 nM) | 109% | 101% | -39.4% | 87.3% | 75.7% | 30.9% | 85.1% | 80.7% | 65.5% | 51.3% | 93.7% | 76.9% | 55.3% | -25.9% | 78.5% | 98.5% | 95.7% | 35.6% | 44.7% | 19.5% | 72.7% | 44.6% | 67.8% | 63.1% | 31.8% | 66% | 72.6% | 40.6% | 64.4% | 32.3% | 39.5% | 61% | 29.9% | 50.1% | 73.2% | 49.4% | 32.2%
CCN(CC)CCCC(C)Nc1c2ccc(Cl)cc2nc2ccc(OC)cc12 (stereo not drawn) [Mepacrine] (500 nM) | 109% | 104% | 109% | -33% | 96.9% | 104% | 103% | 85.1% | 74.7% | 99.1% | 93.8% | 82.7% | 85.1% | 63.5% | 103% | 111% | 108% | 66.9% | 104% | 90.8% | 101% | 93.1% | 44.1% | 97.2% | 103% | 98.9% | 104% | 86.1% | 103% | 101% | 106% | 105% | 98.7% | 113% | 98.4% | 99.8% | 64%
C=CC(=O)Nc1cc2c(Nc3ccc(F)c(Cl)c3)ncnc2cc1OCCCN1CCOCC1 [Canertinib] (100 nM) | 94.3% | 102% | 136% | 97.6% | 99.3% | 72.3% | 84.4% | 51.8% | 104% | 107% | 114% | 107% | 106% | 109% | 75.7% | 108% | 105% | 98.2% | 95.7% | 46.4% | 91.9% | 76.6% | 99.5% | 99.1% | 69.1% | 95.3% | 70.9% | 97.5% | 103% | 85.5% | 96.6% | 43.9% | 97.4% | 93.9% | 84.5% | 102% | 60.2%
C=CCc1cccc(/C=N/NC(=O)CN2CCN(Cc3ccccc3)CC2)c1O [PAC-1] (100 nM) | 110% | 107% | 79.1% | 106% | 98.7% | 99.7% | 103% | 100% | 107% | 116% | 99.4% | 83.5% | 75.2% | 84.3% | 101% | 105% | 102% | 98.2% | 101% | 108% | 102% | 99.4% | 103% | 102% | 103% | 102% | 99.6% | 103% | 107% | 118% | 99.3% | 111% | 104% | 104% | 97.1% | 105% | 91.8%

Source: the supplement of paper PMC4862054
